Laboratory results taken from the kinase profiling compilation of Christmann-Franck et al. (2016).

Legend:
Assay in all cases: KINOMEscan competition binding
Conditions in all cases: compound 10.0 µM
ANKK1 (human) = ANKK1 (human) (UniProt Q8NFD2)
BRAF (human) = BRAF (human) (UniProt P15056)
CAMK4 (human) = CAMK4 (human) (UniProt Q16566)
CDC42BPG (human) = CDC42BPG (human) (UniProt Q6DT37)
CDK11B (human) = CDK11B (human) (UniProt P21127)
CSNK2A2 (human) = CSNK2A2 (human) (UniProt P19784)
DAPK3 (human) = DAPK3 (human) (UniProt O43293)
DCLK1 (human) = DCLK1 (human) (UniProt O15075)
DYRK1B (human) = DYRK1B (human) (UniProt Q9Y463)
EPHA1 (human) = EPHA1 (human) (UniProt P21709)
EPHA5 (human) = EPHA5 (human) (UniProt P54756)
EPHB1 (human) = EPHB1 (human) (UniProt P54762)
ERN1 (human) = ERN1 (human) (UniProt O75460)
GRK7 (human) = GRK7 (human) (UniProt Q8WTQ7)
HIPK4 (human) = HIPK4 (human) (UniProt Q8NE63)
IKBKB (human) = IKBKB (human) (UniProt O14920)
IRAK3 (human) = IRAK3 (human) (UniProt Q9Y616)
KIT (human) = KIT (human) (UniProt P10721)
[1] = system: KIT (human), P10721 [L576P]
LRRK2 (human) = LRRK2 (human) (UniProt Q5S007)
MAP2K1 (human) = MAP2K1 (human) (UniProt Q02750)
MAP2K7 (human) = MAP2K7 (human) (UniProt O14733)
MAP3K3 (human) = MAP3K3 (human) (UniProt Q99759)
MAPK8 (human) = MAPK8 (human) (UniProt P45983)
MARK4 (human) = MARK4 (human) (UniProt Q96L34)
MATK (human) = MATK (human) (UniProt P42679)
MTOR (human) = MTOR (human) (UniProt P42345)
NUAK2 (human) = NUAK2 (human) (UniProt Q9H093)
PAK7 (human) = PAK7 (human) (UniProt Q9P286)
PI4KB (human) = PI4KB (human) (UniProt Q9UBF8)
PIK3CG (human) = PIK3CG (human) (UniProt P48736)
PIP4K2C (human) = PIP4K2C (human) (UniProt Q8TBX8)
PLK2 (human) = PLK2 (human) (UniProt Q9NYY3)
PRKCI (human) = PRKCI (human) (UniProt P41743)
RIPK1 (human) = RIPK1 (human) (UniProt Q13546)
SBK1 (human) = SBK1 (human) (UniProt Q52WX2)
STK17B (human) = STK17B (human) (UniProt O94768)
SYK (human) = SYK (human) (UniProt P43405)
[2] = biological target: TYK2 JH2 pseudokinase (human) (UniProt P29597)
ZAP70 (human) = ZAP70 (human) (UniProt P43403)
ZAP70 (human), sequence (P43403 whole entry, looked up): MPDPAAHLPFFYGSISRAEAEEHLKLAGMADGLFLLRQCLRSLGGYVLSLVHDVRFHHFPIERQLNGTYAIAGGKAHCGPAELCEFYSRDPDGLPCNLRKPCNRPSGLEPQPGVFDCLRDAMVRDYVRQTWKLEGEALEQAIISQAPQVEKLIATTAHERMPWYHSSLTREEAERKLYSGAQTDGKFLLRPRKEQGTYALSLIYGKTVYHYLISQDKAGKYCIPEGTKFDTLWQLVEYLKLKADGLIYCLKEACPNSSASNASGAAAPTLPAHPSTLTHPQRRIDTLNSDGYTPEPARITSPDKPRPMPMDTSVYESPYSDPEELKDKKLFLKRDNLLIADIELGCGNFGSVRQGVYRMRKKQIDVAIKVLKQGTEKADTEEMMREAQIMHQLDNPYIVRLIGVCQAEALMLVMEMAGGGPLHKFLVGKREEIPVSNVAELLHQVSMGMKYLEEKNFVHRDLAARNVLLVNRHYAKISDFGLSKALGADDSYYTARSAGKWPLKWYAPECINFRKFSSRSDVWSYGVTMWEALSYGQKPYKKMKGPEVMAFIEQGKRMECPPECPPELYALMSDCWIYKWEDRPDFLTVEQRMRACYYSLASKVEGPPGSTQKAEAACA

PIK3CG (human), sequence (P48736 whole entry, looked up): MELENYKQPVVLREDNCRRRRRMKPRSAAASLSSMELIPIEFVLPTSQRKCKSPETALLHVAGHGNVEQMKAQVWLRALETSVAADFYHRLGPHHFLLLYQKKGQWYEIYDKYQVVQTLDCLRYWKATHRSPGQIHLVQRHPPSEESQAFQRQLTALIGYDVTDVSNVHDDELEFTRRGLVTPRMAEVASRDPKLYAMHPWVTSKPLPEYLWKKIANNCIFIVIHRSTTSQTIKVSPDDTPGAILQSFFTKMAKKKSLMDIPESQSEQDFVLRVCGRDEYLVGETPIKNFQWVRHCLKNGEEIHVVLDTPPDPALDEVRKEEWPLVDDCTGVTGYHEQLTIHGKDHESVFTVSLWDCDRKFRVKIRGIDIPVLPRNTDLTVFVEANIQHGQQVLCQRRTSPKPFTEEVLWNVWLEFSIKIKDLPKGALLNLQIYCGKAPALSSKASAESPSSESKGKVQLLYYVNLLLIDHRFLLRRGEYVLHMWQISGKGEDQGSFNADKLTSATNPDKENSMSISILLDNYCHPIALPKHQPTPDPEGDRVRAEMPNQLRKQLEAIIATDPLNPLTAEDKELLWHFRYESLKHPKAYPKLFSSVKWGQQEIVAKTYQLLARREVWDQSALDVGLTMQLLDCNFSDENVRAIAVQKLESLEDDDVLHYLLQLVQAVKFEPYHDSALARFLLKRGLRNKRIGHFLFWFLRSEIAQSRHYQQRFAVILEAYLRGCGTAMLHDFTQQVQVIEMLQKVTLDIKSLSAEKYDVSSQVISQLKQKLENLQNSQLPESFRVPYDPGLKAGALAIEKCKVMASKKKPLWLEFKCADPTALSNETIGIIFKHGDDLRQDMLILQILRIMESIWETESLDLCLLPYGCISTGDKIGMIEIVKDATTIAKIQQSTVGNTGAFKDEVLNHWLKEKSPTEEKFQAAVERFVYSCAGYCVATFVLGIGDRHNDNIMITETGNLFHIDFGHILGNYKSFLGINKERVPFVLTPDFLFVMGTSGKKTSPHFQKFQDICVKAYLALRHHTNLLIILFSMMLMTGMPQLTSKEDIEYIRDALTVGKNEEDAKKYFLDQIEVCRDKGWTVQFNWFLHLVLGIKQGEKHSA
DYRK1B (human), sequence (Q9Y463 whole entry, looked up): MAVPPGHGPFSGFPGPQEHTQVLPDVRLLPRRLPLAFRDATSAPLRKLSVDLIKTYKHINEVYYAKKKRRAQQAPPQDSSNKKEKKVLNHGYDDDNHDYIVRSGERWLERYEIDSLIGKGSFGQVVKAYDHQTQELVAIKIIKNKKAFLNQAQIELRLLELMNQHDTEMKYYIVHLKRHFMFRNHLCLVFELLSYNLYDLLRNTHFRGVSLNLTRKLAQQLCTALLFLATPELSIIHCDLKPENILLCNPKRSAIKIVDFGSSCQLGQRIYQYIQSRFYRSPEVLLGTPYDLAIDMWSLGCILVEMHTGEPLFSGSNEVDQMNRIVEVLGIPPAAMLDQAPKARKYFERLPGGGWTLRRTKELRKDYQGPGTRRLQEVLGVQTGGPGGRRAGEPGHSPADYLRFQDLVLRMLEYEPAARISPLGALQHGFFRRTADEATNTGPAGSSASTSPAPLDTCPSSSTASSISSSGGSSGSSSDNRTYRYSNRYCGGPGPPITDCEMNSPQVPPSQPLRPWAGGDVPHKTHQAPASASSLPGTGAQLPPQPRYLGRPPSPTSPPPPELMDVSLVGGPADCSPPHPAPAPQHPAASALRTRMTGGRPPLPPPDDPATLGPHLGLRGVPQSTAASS
PI4KB (human), sequence (Q9UBF8 whole entry, looked up): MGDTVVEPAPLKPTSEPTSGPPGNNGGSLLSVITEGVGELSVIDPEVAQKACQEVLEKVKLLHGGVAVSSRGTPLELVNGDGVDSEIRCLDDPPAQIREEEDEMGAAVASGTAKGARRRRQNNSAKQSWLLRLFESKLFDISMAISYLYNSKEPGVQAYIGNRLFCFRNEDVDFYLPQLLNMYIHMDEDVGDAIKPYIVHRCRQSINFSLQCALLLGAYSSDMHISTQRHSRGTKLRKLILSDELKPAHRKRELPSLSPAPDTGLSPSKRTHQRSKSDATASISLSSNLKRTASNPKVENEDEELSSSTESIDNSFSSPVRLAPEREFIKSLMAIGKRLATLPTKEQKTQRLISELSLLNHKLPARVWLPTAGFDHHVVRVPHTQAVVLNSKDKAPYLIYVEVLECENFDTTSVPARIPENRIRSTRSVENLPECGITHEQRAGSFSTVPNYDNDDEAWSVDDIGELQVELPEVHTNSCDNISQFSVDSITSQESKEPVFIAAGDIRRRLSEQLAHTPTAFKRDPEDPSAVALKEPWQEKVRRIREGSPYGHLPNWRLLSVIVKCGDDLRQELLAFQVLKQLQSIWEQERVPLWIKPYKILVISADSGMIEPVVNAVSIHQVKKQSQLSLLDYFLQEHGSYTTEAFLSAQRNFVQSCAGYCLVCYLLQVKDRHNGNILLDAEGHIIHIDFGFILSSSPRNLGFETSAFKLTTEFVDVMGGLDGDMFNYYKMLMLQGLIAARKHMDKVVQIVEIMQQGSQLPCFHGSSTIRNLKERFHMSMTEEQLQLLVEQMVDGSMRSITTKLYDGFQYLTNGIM
CAMK4 (human), sequence (Q16566 whole entry, looked up): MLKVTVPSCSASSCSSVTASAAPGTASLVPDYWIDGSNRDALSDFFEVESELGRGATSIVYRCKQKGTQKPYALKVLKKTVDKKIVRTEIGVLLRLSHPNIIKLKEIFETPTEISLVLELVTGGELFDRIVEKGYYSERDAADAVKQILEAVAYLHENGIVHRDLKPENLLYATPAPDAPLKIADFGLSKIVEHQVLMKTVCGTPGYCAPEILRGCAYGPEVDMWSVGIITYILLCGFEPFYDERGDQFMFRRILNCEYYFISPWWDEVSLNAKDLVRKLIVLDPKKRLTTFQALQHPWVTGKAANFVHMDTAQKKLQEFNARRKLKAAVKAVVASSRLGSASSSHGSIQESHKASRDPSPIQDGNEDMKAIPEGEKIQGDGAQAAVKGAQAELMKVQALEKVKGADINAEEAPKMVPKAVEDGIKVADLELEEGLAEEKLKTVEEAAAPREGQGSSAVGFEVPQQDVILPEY
MAP3K3 (human), sequence (Q99759 whole entry, looked up): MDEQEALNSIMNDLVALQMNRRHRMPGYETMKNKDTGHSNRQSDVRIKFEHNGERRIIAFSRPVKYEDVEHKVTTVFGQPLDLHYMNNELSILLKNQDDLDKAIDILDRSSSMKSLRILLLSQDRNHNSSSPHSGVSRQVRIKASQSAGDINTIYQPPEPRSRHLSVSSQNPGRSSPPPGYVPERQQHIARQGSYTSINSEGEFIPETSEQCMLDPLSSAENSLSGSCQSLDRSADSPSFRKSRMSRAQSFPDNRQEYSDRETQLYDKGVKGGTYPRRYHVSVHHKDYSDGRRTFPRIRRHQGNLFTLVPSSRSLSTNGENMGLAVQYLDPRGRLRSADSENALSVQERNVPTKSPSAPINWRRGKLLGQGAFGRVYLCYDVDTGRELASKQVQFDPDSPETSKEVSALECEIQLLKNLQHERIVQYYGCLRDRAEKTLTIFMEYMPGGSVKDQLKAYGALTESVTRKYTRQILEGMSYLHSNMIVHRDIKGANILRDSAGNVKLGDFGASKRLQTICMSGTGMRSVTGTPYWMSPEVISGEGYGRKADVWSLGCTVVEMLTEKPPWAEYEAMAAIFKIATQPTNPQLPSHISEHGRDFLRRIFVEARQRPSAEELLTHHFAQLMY
CDK11B (human), sequence (P21127 whole entry, looked up): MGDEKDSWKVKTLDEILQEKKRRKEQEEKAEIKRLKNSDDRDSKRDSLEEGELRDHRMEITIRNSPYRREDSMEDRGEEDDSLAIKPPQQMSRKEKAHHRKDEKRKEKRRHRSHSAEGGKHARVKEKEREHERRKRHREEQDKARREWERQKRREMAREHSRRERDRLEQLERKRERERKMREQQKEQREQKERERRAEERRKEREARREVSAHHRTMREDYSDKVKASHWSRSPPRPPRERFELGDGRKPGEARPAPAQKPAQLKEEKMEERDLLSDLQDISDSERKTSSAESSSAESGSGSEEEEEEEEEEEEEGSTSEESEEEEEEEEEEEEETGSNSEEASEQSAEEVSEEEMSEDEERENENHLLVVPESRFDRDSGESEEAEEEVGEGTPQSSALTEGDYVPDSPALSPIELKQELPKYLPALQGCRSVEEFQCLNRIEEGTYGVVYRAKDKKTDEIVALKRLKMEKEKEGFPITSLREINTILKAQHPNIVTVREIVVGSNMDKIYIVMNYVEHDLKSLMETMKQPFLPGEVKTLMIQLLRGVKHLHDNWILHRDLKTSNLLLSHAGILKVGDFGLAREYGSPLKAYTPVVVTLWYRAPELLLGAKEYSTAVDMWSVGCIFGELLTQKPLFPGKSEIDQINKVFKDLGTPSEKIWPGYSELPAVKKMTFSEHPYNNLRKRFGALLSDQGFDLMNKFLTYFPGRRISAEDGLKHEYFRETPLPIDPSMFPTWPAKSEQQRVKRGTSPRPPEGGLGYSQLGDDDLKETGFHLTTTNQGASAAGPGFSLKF

SMILES | kinase still bound, per cent of control (ANKK1 (human)) [%] | kinase still bound, per cent of control (BRAF (human)) [%] | kinase still bound, per cent of control (CAMK4 (human)) [%] | kinase still bound, per cent of control (CDC42BPG (human)) [%] | kinase still bound, per cent of control (CDK11B (human)) [%] | kinase still bound, per cent of control (CSNK2A2 (human)) [%] | kinase still bound, per cent of control (DAPK3 (human)) [%] | kinase still bound, per cent of control (DCLK1 (human)) [%] | kinase still bound, per cent of control (DYRK1B (human)) [%] | kinase still bound, per cent of control (EPHA1 (human)) [%] | kinase still bound, per cent of control (EPHA5 (human)) [%] | kinase still bound, per cent of control (EPHB1 (human)) [%] | kinase still bound, per cent of control (ERN1 (human)) [%] | kinase still bound, per cent of control (GRK7 (human)) [%] | kinase still bound, per cent of control (HIPK4 (human)) [%] | kinase still bound, per cent of control (IKBKB (human)) [%] | kinase still bound, per cent of control (IRAK3 (human)) [%] | kinase still bound, per cent of control (KIT (human)) [%] | kinase still bound, per cent of control [1] [%] | kinase still bound, per cent of control (LRRK2 (human)) [%] | other results
CCN1CCN(C(=O)Cc2ccc(Nc3ncc(F)c(Nc4ccc(C(=O)Nc5ccccc5Cl)cc4)n3)cc2)CC1 | 36 | 70 | 100 | 66 | 87 | 7.8 | 5.2 | 74 | 46 | 27 | 92 | 66 | 91 | 71 | 2.4 | 27 | 1.8 | 1 | 3.2 | 73 | kinase still bound, per cent of control (MAP2K1 (human)): 76%; kinase still bound, per cent of control (MAP2K7 (human)): 100%; kinase still bound, per cent of control (MAP3K3 (human)): 49%; kinase still bound, per cent of control (MAPK8 (human)): 1.7%; kinase still bound, per cent of control (MARK4 (human)): 17%; kinase still bound, per cent of control (MATK (human)): 100%; kinase still bound, per cent of control (MTOR (human)): 20%; kinase still bound, per cent of control (NUAK2 (human)): 23%; kinase still bound, per cent of control (PAK7 (human)): 56%; kinase still bound, per cent of control (PI4KB (human)): 100%; kinase still bound, per cent of control (PIK3CG (human)): 65%; kinase still bound, per cent of control (PIP4K2C (human)): 38%; kinase still bound, per cent of control (PLK2 (human)): 88%; kinase still bound, per cent of control (PRKCI (human)): 77%; kinase still bound, per cent of control (RIPK1 (human)): 96%; kinase still bound, per cent of control (SBK1 (human)): 75%; kinase still bound, per cent of control (STK17B (human)): 13%; kinase still bound, per cent of control (SYK (human)): 33%; kinase still bound, per cent of control [2]: 12%; kinase still bound, per cent of control (ZAP70 (human)): 100%
COc1ccc(N(C(=O)Oc2c(C)cccc2C)c2ccnc(Nc3ccc(N4CCN(C)CC4)cc3)n2)c(OC)c1 | 100 | 88 | 100 | 0.45 | 58 | 95 | 88 | 84 | 68 | 0 | 0.15 | 0 | 62 | 72 | 8.8 | 93 | 19 | 0.45 | 1 | 78 | kinase still bound, per cent of control (MAP2K1 (human)): 38%; kinase still bound, per cent of control (MAP2K7 (human)): 85%; kinase still bound, per cent of control (MAP3K3 (human)): 0.75%; kinase still bound, per cent of control (MAPK8 (human)): 64%; kinase still bound, per cent of control (MARK4 (human)): 49%; kinase still bound, per cent of control (MATK (human)): 67%; kinase still bound, per cent of control (MTOR (human)): 100%; kinase still bound, per cent of control (NUAK2 (human)): 9.8%; kinase still bound, per cent of control (PAK7 (human)): 82%; kinase still bound, per cent of control (PI4KB (human)): 100%; kinase still bound, per cent of control (PIK3CG (human)): 100%; kinase still bound, per cent of control (PIP4K2C (human)): 100%; kinase still bound, per cent of control (PLK2 (human)): 100%; kinase still bound, per cent of control (PRKCI (human)): 62%; kinase still bound, per cent of control (RIPK1 (human)): 63%; kinase still bound, per cent of control (SBK1 (human)): 100%; kinase still bound, per cent of control (STK17B (human)): 100%; kinase still bound, per cent of control (SYK (human)): 1.4%; kinase still bound, per cent of control [2]: 100%; kinase still bound, per cent of control (ZAP70 (human)): 79%
